Measurements taken from the supplement of paper PMC11061612.

What was measured:
[1] = tested on: Detroit562 (Head and Neck Carcinoma); assay: Bliss excess, mean over the matrix (fraction); higher = more synergy
Procedure, shortened: (§1)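 Cell lines in DMEM/F12 or RPMI with 10% FBS were plated in 1536-well plates, held 24 hours at 37°C, 5% CO2, then given two-drug dose matrices for 72 hours (DMSO typically 0.2%). Viability was read by CellTiter-Glo 2.0 luminescence and scaled as inhibition from 0 (vehicle wells) to 1 (blank wells). Combination Emax is the second-highest inhibition in the matrix; Bliss excess is observed combination effect minus expected EA + EB − EA·EB, EA and EB being single-agent effects.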

[2] = tested on: SW1573 (Lung Adenocarcinoma); assay: as above
Procedure, shortened: as §1

[3] = tested on: SNU-16 (Gastric Carcinoma); assay: as above
Procedure, shortened: as §1

A673 (Ewing's Sarcoma) [4] = assay: as above
Procedure, shortened: as §1

[5] = tested on: NCI-H524 (Small Cell Lung Carcinoma); assay: as above
Procedure, shortened: as §1

GAMG (Glioblastoma) = assay: as above
Procedure, shortened: as §1

MPP-89 (Mesothelioma) = assay: as above
Procedure, shortened: as §1

[6] = tested on: BFTC-909 (Kidney Carcinoma); assay: as above
Procedure, shortened: as §1

[7] = tested on: NCI-H1568 (Lung Adenocarcinoma); assay: as above
Procedure, shortened: as §1

[8] = tested on: CAL-33 (Oral Cavity Carcinoma); assay: as above
Procedure, shortened: as §1

[9] = tested on: YAPC (Pancreatic Carcinoma); assay: as above
Procedure, shortened: as §1

[10] = tested on: SNU-449 (Hepatocellular Carcinoma); assay: as above
Procedure, shortened: as §1

[11] = tested on: SW1710 (Bladder Carcinoma); assay: as above
Procedure, shortened: as §1

[12] = tested on: NCI-H209 (Small Cell Lung Carcinoma); assay: as above
Procedure, shortened: as §1

NCI-H2052 (Mesothelioma) = assay: as above
Procedure, shortened: as §1

KS-1 (Glioblastoma) = assay: combination Emax (second highest fraction inhibited in the dose matrix, 72 h); higher = more inhibition; extreme values may be limits of the assay
Procedure, shortened: as §1

A673 (Ewing's Sarcoma) [13] = assay: as above
Procedure, shortened: as §1

[14] = tested on: BFTC-909 (Kidney Carcinoma); assay: as above
Procedure, shortened: as §1

[15] = tested on: SNU-449 (Hepatocellular Carcinoma); assay: as above
Procedure, shortened: as §1

[16] = tested on: SW1710 (Bladder Carcinoma); assay: as above
Procedure, shortened: as §1
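Wherever Bliss excess, mean over the matrix is given: after 72 h of two-drug dosing.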

| Structure (SMILES) | Bliss excess [1] | Bliss excess [2] | Bliss excess [3] | Bliss excess (A673 (Ewing's Sarcoma) [4]) | Bliss excess [5] | Bliss excess (GAMG (Glioblastoma)) | Bliss excess (MPP-89 (Mesothelioma)) | Bliss excess [6] | Bliss excess [7] | Bliss excess [8] | Bliss excess [9] | Bliss excess [10] | Bliss excess [11] | Bliss excess [12] | Bliss excess (NCI-H2052 (Mesothelioma)) | combination Emax (KS-1 (Glioblastoma)) | combination Emax (A673 (Ewing's Sarcoma) [13]) | combination Emax [14] | combination Emax [15] | combination Emax [16] |
| --- | --- | --- | --- | --- | --- | --- | --- | --- | --- | --- | --- | --- | --- | --- | --- | --- | --- | --- | --- | --- |
| C=CCn1c(=O)c2cnc(Nc3ccc(N4CCN(C)CC4)cc3)nc2n1-c1cccc(C(C)(C)O)n1 [AZD1775] + C[C@@H]1COCCN1C2=NC(=NC(=C2)C3(CC3)[S@](=N)(=O)C)C4=C5C=CNC5=NC=C4 [AZD6738] (first compound max 1 µM, partner max 10 µM) | -0.002 | 0.0334 | -0.0002 | 0.0115 | 0.051 | -0.0218 | 0.0013 | 0.0858 | -0.0346 | 0.0324 | -0.0399 | -0.0061 | 0.0811 | 0.0422 | -0.0197 | 0.66 | 0.907 | 0.906 | 0.409 | 0.713 |
| C=CCn1c(=O)c2cnc(Nc3ccc(N4CCN(C)CC4)cc3)nc2n1-c1cccc(C(C)(C)O)n1 [AZD1775] + O=C(c1cc(Cc2n[nH]c(=O)c3ccccc23)ccc1F)N1CCN(C(=O)C2CC2)CC1 [Olaparib] (first compound max 1 µM, partner max 10 µM) | -0.0389 | -0.0268 | 0.0102 | 0.0042 | 0.0424 | 0.0147 | -0.0018 | 0.0075 | -0.0745 | -0.0073 | -0.071 | -0.0418 | -0.0299 | -0.0579 | -0.0602 | 0.481 | 0.822 | 0.595 | 0.22 | 0.383 |
| CCN(CCO)CCCOc1ccc2c(Nc3cc(CC(=O)Nc4cccc(F)c4)[nH]n3)ncnc2c1 [AZD2811] + C=CCn1c(=O)c2cnc(Nc3ccc(N4CCN(C)CC4)cc3)nc2n1-c1cccc(C(C)(C)O)n1 [AZD1775] (first compound max 1 µM, partner max 1 µM) | 0.05 | 0.0297 | 0.0538 | -0.0838 | -0.0253 | 0.0224 | -0.0173 | 0.0293 | -0.0301 | -0.0365 | -0.0392 | -0.0028 | 0.0084 | 0.089 | -0.0485 | 0.481 | 0.708 | 0.683 | 0.249 | 0.317 |
| CCN(CCO)CCCOc1ccc2c(Nc3cc(CC(=O)Nc4cccc(F)c4)[nH]n3)ncnc2c1 [AZD2811] + C[C@@H]1COCCN1C2=NC(=NC(=C2)C3(CC3)[S@](=N)(=O)C)C4=C5C=CNC5=NC=C4 [AZD6738] (first compound max 1 µM, 7x7, partner max 10 µM) | -0.0108 | -0.0394 | -0.0281 | -0.0587 | -0.0399 | -0.0399 | -0.0823 | -0.0231 | -0.0514 | -0.0199 | -0.0367 | -0.0536 | -0.0975 | 0.0731 | -0.0207 | 0.576 | 0.852 | 0.777 | 0.176 | 0.398 |
| CCN(CCO)CCCOc1ccc2c(Nc3cc(CC(=O)Nc4cccc(F)c4)[nH]n3)ncnc2c1 [AZD2811] + O=C(c1cc(Cc2n[nH]c(=O)c3ccccc23)ccc1F)N1CCN(C(=O)C2CC2)CC1 [Olaparib] (first compound max 1 µM, 7x7, partner max 10 µM) | 0.0133 | 0.0123 | -0.0101 | -0.0906 | -0.0602 | -0.0041 | -0.0334 | 0.0468 | -0.0472 | 0.0044 | -0.0124 | -0.0368 | 0.0073 | 0.0418 | -0.0042 | 0.363 | 0.841 | 0.221 | 0.205 | 0.185 |
| CN(CCO)CC[C@H](CSc1ccccc1)Nc1ccc(S(=O)(=O)NC(=O)c2ccc(N3CCC([C@@H](O)c4ccccc4-c4ccc(Cl)cc4)CC3)cc2)cc1S(=O)(=O)C(F)(F)F [AZD4320] + C1CN(CCC1(C(=O)N[C@@H](CCO)C2=CC=C(C=C2)Cl)N)C3=NC=NC4=C3C=CN4 [Capivasertib] (first compound max 1 µM, 7x7, partner max 3 µM) | -0.0535 | -0.0614 | 0.0015 | 0.0099 | -0.0517 | -0.0661 | -0.0234 | -0.0955 | -0.0518 | -0.0424 | -0.0415 | -0.0742 | -0.034 | -0.0057 | -0.0743 | 0.296 | 0.905 | 0.346 | 0.0999 | 0.302 |
| CN(CCO)CC[C@H](CSc1ccccc1)Nc1ccc(S(=O)(=O)NC(=O)c2ccc(N3CCC([C@@H](O)c4ccccc4-c4ccc(Cl)cc4)CC3)cc2)cc1S(=O)(=O)C(F)(F)F [AZD4320] + C=CCn1c(=O)c2cnc(Nc3ccc(N4CCN(C)CC4)cc3)nc2n1-c1cccc(C(C)(C)O)n1 [AZD1775] (first compound max 1 µM, partner max 1 µM) | -0.0067 | 0.0152 | 0.0049 | 0.082 | 0.055 | 0.0041 | 0.0351 | 0.0577 | 0.0492 | -0.0266 | -0.0482 | -0.0744 | -0.0047 | 0.0963 | 0.0004 | 0.549 | 1 | 0.905 | 0.138 | 0.418 |
| CN(CCO)CC[C@H](CSc1ccccc1)Nc1ccc(S(=O)(=O)NC(=O)c2ccc(N3CCC([C@@H](O)c4ccccc4-c4ccc(Cl)cc4)CC3)cc2)cc1S(=O)(=O)C(F)(F)F [AZD4320] + CN(C)CCCOc1ccc(-c2ccc3ncc4c(c3c2)n(C2CCOCC2)c(=O)n4C)cn1 [AZD0156] (first compound max 1 µM, 7x7, partner max 1 µM) | -0.0332 | -0.0585 | -0.0207 | 0.0419 | 0.0124 | -0.0237 | -0.0339 | 0.009 | -0.0099 | 0.007 | -0.028 | -0.0828 | -0.0302 | 0.033 | -0.0383 | 0.239 | 0.929 | 0.239 | 0.15 | 0.117 |
| CN(CCO)CC[C@H](CSc1ccccc1)Nc1ccc(S(=O)(=O)NC(=O)c2ccc(N3CCC([C@@H](O)c4ccccc4-c4ccc(Cl)cc4)CC3)cc2)cc1S(=O)(=O)C(F)(F)F [AZD4320] + C[C@@H](Nc1cc(F)cc(F)c1)c1cc(C(=O)N(C)C)cc2c(=O)cc(N3CCOCC3)oc12 [AZD8186] (first compound max 1 µM, 7x7, partner max 3 µM) | 0.0261 | -0.0169 | 0.0286 | 0.0149 | 0.0121 | 0.0337 | 0.0212 | -0.0011 | -0.0013 | -0.0039 | -0.0258 | 0.0093 | 0.0263 | 0.0529 | -0.0278 | 0.486 | 0.971 | 0.595 | 0.313 | 0.373 |
| CN(CCO)CC[C@H](CSc1ccccc1)Nc1ccc(S(=O)(=O)NC(=O)c2ccc(N3CCC([C@@H](O)c4ccccc4-c4ccc(Cl)cc4)CC3)cc2)cc1S(=O)(=O)C(F)(F)F [AZD4320] + Cn1cnc2c(F)c(Nc3ccc(Br)cc3Cl)c(C(=O)NOCCO)cc21 [Selumetinib] (first compound max 1 µM, 7x7, partner max 3 µM) | 0.072 | 0.0119 | -0.0054 | 0.0944 | -0.0061 | 0.0039 | -0.0056 | 0.0212 | -0.0035 | 0.0749 | 0.0082 | -0.0537 | 0.0287 | -0.0215 | 0.0283 | 0.341 | 0.971 | 0.473 | 0.221 | 0.315 |
| COc1nnc2ccc(N3CCC(c4ccc(OCCN5CCN(C)C(=O)[C@H]5C)cc4)CC3)nn12 [AZD5153] + C=CCn1c(=O)c2cnc(Nc3ccc(N4CCN(C)CC4)cc3)nc2n1-c1cccc(C(C)(C)O)n1 [AZD1775] (first compound max 1 µM, partner max 1 µM) | -0.0535 | -0.0388 | -0.0385 | -0.055 | -0.0337 | -0.0516 | -0.0669 | -0.0723 | -0.102 | -0.0757 | -0.0403 | -0.0033 | -0.0582 | 0.0223 | -0.0882 | 0.686 | 0.602 | 0.702 | 0.249 | 0.36 |
| COc1nnc2ccc(N3CCC(c4ccc(OCCN5CCN(C)C(=O)[C@H]5C)cc4)CC3)nn12 [AZD5153] + CC1(C)CCC(CN2CCN(c3ccc(C(=O)NS(=O)(=O)c4ccc(NCC5CCOCC5)c([N+](=O)[O-])c4)c(Oc4cnc5[nH]ccc5c4)c3)CC2)=C(c2ccc(Cl)cc2)C1 [Venetoclax] (first compound max 1 µM, 7x7, partner max 1 µM) | -0.0552 | -0.118 | -0.0522 | -0.0706 | -0.037 | -0.01 | -0.0166 | -0.105 | -0.0383 | -0.0393 | -0.0115 | -0.0308 | -0.0739 | -0.008 | -0.0748 | 0.649 | 0.505 | 0.496 | 0.252 | 0.291 |
| COc1nnc2ccc(N3CCC(c4ccc(OCCN5CCN(C)C(=O)[C@H]5C)cc4)CC3)nn12 [AZD5153] + CCN(CCO)CCCOc1ccc2c(Nc3cc(CC(=O)Nc4cccc(F)c4)[nH]n3)ncnc2c1 [AZD2811] (first compound max 1 µM, 7x7, partner max 1 µM) | -0.0804 | -0.0609 | 0.0728 | -0.0389 | -0.0138 | 0.0004 | -0.0396 | 0.0272 | -0.064 | -0.128 | -0.0203 | -0.0179 | -0.052 | -0.0145 | -0.0479 | 0.641 | 0.616 | 0.535 | 0.298 | 0.33 |
